Experiment [1] has as its system A-549 (lung cancer) cell line. The experiment in a line: IC50 determination, MIT (tetrazolium) assay, 72 h (Example 18). In kind it is cell-based, human. The procedure: (§1) Before plating, cell cultures were trypsinized and cell number estimated using an automated flow cytometer.
(§2) Cells were harvested and seeded in 96 well microtiter plates at the appropriate cell density (5,000-10,000 cells) in 150 μL of media and incubated for 24 hours to allow the cells to attach before drug addition.
(§3) After the incubation period (72 hours), 50 μL of MIT solution was added to each microtiter well and incubated for further 8 hours at 37° C. The culture medium was then removed and 50 μl, of DMSO were added to dissolve the MIT crystals. Optical densities were read at 540 nm on spectrophotometer microplate reader.
(§4) IC50 values were calculated from an average of two to four assays for each of the test agents.

Experiment [2] has as its system NCI-H460 (lung cancer) cell line. Described as above. In kind it is cell-based, human. The following applies: NCI-H460, 72 hours of drug exposure. As to the method: as §1, §2, §3, §4
Another experiment relates to UM-UC-3 tumors. Type of experiment: in vivo, mice. The following applies: mg/kg/day: PM00104 0.90 IV, cisplatin 5 IP, gemcitabine 180 IP, paclitaxel 15 IP. The procedure:
Female athymic nude mice (Harlan Sprague Dawley, Madison, Wis.) were utilized for all experiments. Animals were housed in ventilated rack caging with food and water ad libitum. The mice were acclimated for at least 5 days prior to tumor implantation with a tumor cell suspension.
The tumor model used in these studies was UM-UC-3 cell line, which was obtained from the ATCC (Manassas, Va.).
UM-UC-3 cells were grown in minimum essential medium (Eagle's) supplemented with 10% FBS, 1.5 g/L sodium bicarbonate, 0.1 mM non-essential amino acids, 1 mM sodium pyruvate, and 2 mM L-glutamine. Each animal was implanted SC on the right flank, using a trochar and 1 cc syringe, with 5×10^6 UM-UC-3 cells, from in vitro passage 17, in a 0.2 mL suspension of 50% Matrigel and 50% serum free medium, without antibiotics. Bacterial cultures were performed on aliquots of the cells prepared for implantation.
Treatments were initiated on DPI 15.
Tumor size measurements were recorded twice weekly from the treatment initiation until the termination of the study.
Mean, standard deviation and standard error of the mean were determined for tumor volume for all animal groups at all assessments. Student's t test was performed on tumor volumes at each measurement day, including at the end of the study, to determine whether there were any statistically significant differences between combination treatment groups and single monotherapy treatment groups.

Experiment [3] has as its system Hs746T human gastric carcinoma cell line. The experiment in a line: IC50 determination, MTS assay, 72 h (Example 1). Type of experiment: cell-based. The following applies: 72 hours of drug exposure. The gist of the method: (§5)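 Cells are seeded at 10,000 per well and allowed to attach for 24 h, then exposed to compound for 72 h. Viability is read by MTS/PMS, 4 h at 37 °C, with OD at 490 nm, and referenced to a time-0 plate. IC50 is averaged from two to four assays.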

In experiment [4] the test system is HGC-27 human gastric carcinoma cell line. Nature of the experiment: IC50 determination, MTS assay, 72 h (Example 1). Type of experiment: cell-based. The following applies: 72 hours of drug exposure. The gist of the method: as §5
A general note: Tetrazolium dyes change colour on reduction, which living cells bring about.

In experiment [5] the test system is AGS human gastric carcinoma cell line. Nature of the experiment: IC50 determination, MTS assay, 72 h (Example 1). Type of experiment: cell-based. The following applies: 72 hours of drug exposure. The gist of the method: as §5

SMILES strings stand for the structures. In brackets after ≈: the same amount, converted by molar mass. Read-outs that look alike come from different tables or passages of the source.

One may read the IC50 as the concentration that gives 50% inhibition. Regarding `Nc1ccn([C@@H]2O[C@H](CO)[C@@H](O)C2(F)F)c(=O)n1` [Gemcitabine, gemcitabine], the IC50 in experiment [1] (Homo sapiens, A549, 72 h) is 0.5 nM; in experiment [2] (Homo sapiens) it was 1 nM.
A word on the % Inhibition: it is the drop in the measured response relative to a control, in per cent. For `COc1c(C)cc2c(c1O)[C@@H]1[C@@H]3Cc4c(OC(C)=O)c(C)c5c(c4[C@H](CNC(=O)/C=C/c4cccc(C(F)(F)F)c4)N3[C@@H](O)[C@H](C2)N1C)OCO5` [PM00104], the “% Inhibition” value was −0.8% in the experiment on UM-UC-3 tumors (day 15); 52.8% in the experiment with UM-UC-3 tumors (day 20); 52.2% in the experiment on UM-UC-3 tumors (day 22); 60.2% in the experiment with UM-UC-3 tumors (day 26); 47.4% in the experiment with UM-UC-3 tumors (day 29); 50.7% in the experiment with UM-UC-3 tumors (day 34). For the same compound, the “% Inhibition” value is 37.1% in the experiment on UM-UC-3 tumors (day 40) and 35.1% with UM-UC-3 tumors (day 43). In addition, the “% T/C on day” value with UM-UC-3 tumors (day 15) came to 100.8%; with UM-UC-3 tumors (day 20) it was 47.2%; in the experiment with UM-UC-3 tumors (day 22), 47.8%; with UM-UC-3 tumors (day 26), 39.8%; in the experiment on UM-UC-3 tumors (day 29), 50.4%; with UM-UC-3 tumors (day 34), 49.3%. Also, the “% T/C on day” value in the experiment on UM-UC-3 tumors (day 40) is listed as 62.9%; in the experiment with UM-UC-3 tumors (day 43) it was 64.9%. For the same compound, the 50% inhibitory concentration (IC50) in experiment [1] (Homo sapiens, A549, 72 h) turned out to be 7.2 nM; in experiment [2] (Homo sapiens) it was 7.2 nM; in experiment [3] (Homo sapiens, read-out: IC50) it was 0.00534 µg/mL (≈ 0.00752 µM); in experiment [4] (Homo sapiens, read-out: IC50), 0.00371 µg/mL (≈ 0.00523 µM); in experiment [5] (Homo sapiens, read-out: IC50), 0.00521 µg/mL (≈ 0.00734 µM).
For `N.N.[Cl][Pt][Cl]` [Cisplatin, cisplatin], the “% Inhibition” value is −2.2% with UM-UC-3 tumors (day 15); 23.0% in the experiment on UM-UC-3 tumors (day 20); 24.2% in the experiment on UM-UC-3 tumors (day 22); 38.2% in the experiment on UM-UC-3 tumors (day 26); 34.0% in the experiment with UM-UC-3 tumors (day 29); 55.3% in the experiment with UM-UC-3 tumors (day 34). Also, the figures for the “% Inhibition” value with UM-UC-3 tumors (day 40) and in the experiment with UM-UC-3 tumors (day 43) were 36.2% and 33.0%, respectively. In addition, the “% T/C on day” value in the experiment with UM-UC-3 tumors (day 15) amounted to 102.2%; in the experiment with UM-UC-3 tumors (day 20), 77.0%; in the experiment with UM-UC-3 tumors (day 22), 75.8%; with UM-UC-3 tumors (day 26), 61.8%; in the experiment with UM-UC-3 tumors (day 29) it was 66.0%; in the experiment with UM-UC-3 tumors (day 34), 44.7%. Besides, the results for the “% T/C on day” value in the experiment with UM-UC-3 tumors (day 40) and with UM-UC-3 tumors (day 43) were 63.8% and 67.0%, respectively. The concentration for half-maximal inhibition (IC50) in experiment [1] (A-549, 72 hours of drug exposure) was 50000 nM; in experiment [2] it was 25000 nM; in experiment [3], 39.2 µg/mL; in experiment [4], 25.6 µg/mL; in experiment [5] it was 25.5 µg/mL.
Take `O=c1[nH]cc(F)c(=O)[nH]1` [5-FU, 5-fluorouracil]: the half-inhibitory concentration (IC50) in experiment [3] (Homo sapiens, read-out: IC50) stood at 5.46 µg/mL (≈ 42 µM); in experiment [4] (Homo sapiens, read-out: IC50) it was 0.434 µg/mL (≈ 3.34 µM); in experiment [5] (Homo sapiens, read-out: IC50), 0.532 µg/mL (≈ 4.09 µM).
Consider `CC(=O)O[C@H]1C(=O)[C@@]2(C)[C@H]([C@H](OC(=O)c3ccccc3)[C@]3(O)C[C@H](OC(=O)[C@H](O)[C@@H](NC(=O)c4ccccc4)c4ccccc4)C(C)=C1C3(C)C)[C@]1(OC(C)=O)CO[C@@H]1C[C@@H]2O` [paclitaxel], for which the “% Inhibition” value in the experiment with UM-UC-3 tumors (day 15) worked out at 1.3%; in the experiment on UM-UC-3 tumors (day 20), 46.9%; in the experiment with UM-UC-3 tumors (day 22) it was 54.0%; with UM-UC-3 tumors (day 26), 61.4%; in the experiment on UM-UC-3 tumors (day 29), 64.6%; in the experiment with UM-UC-3 tumors (day 34), 60.5%. Besides, the “% Inhibition” value in the experiment with UM-UC-3 tumors (day 40) is listed as 47.5%; in the experiment with UM-UC-3 tumors (day 43), 41.0%. Also, the “% T/C on day” value was 98.7% in the experiment on UM-UC-3 tumors (day 15); 53.1% in the experiment on UM-UC-3 tumors (day 20); 46.0% in the experiment on UM-UC-3 tumors (day 22); 52.5% with UM-UC-3 tumors (day 40); 59.0% in the experiment with UM-UC-3 tumors (day 43). Further, the half-maximal inhibitory concentration (IC50) in experiment [1] (Homo sapiens, A549, 72 h) came out at 47 nM; in experiment [2] (Homo sapiens), 12 nM.

These data come from US20110070232A1, “Combination Therapy with an Antitumor Alkaloid” (Pharma Mar, S.A., priority 2008, published 2011).
